Each compound was assayed on NL-RLuc virus (assay: Inhibition of HIV Replication (NL-RLuc luciferase reporter virus in MT-2 cells)). Conditions: Human immunodeficiency virus 1, MT2, 120 h.
Type: cell-based
Text: Inhibition of HIV Replication:
A recombinant NL-RLuc proviral clone was constructed in which a section of the nef gene from NL4-3 was replaced with the Renilla Luciferase gene. This virus is fully infectious and can undergo multiple cycles of replication in cell culture. In addition, the luciferous reporter provides a simple and easy method for quantitating the extent of virus growth and consequently, the antiviral activity of test compounds. The plasmid pNLRLuc contains the proviral NL-Rluc DNA cloned into pUC18 at the PvuII site. The NL-RLuc virus was prepared by transfection of 293T cells with the plasmid pNLRLuc. Transfections were performed using the LipofectAMINE PLUS kit from Invitrogen (Carlsbad, Calif.) according to the manufacturer and the virus generated was titered in MT-2 cells. For susceptibility analyses, the titrated virus was used to infect MT-2 cells in the presence of compound, and after 5 days of incubation, cells were processed and quantitated for virus growth by the amount of expressed luciferase. Assay media was RPMI 1640 supplemented with 10% heat inactivated fetal bovine serum (FBS), 100 units/ml penicillin G/100 units/ml streptomycin, 10 mM HEPES buffer pH 7.55 and 2 mM L-glutamine. The results from at least 2 experiments were used to calculate the EC50 values. Luciferase was quantitated using the Dual Luciferase kit from Promega (Madison, Wis.). Susceptibility of viruses to compounds was determined by incubation in the presence of serial dilutions of the compound. The 50% effective concentration (EC50) was calculated by using the exponential form of the median effect equation where (Fa)=1/[1+(ED50/drug conc.)^m] (Johnson V A, Byington R T. Infectivity Assay. In Techniques in HIV Research. ed. Aldovini A, Walker B D. 71-76. New York: Stockton Press. 1990).
Cc1n[nH]c(C)c1CCOc1ccc(-c2c(C)nc(C)c([C@H](OC(C)(C)C)C(=O)O)c2N2CCC(C)(C)CC2)cc1 [Example 54, (S)-2-(tert-butoxy)-2-(5-(4-(2-(3,5-dimethyl-1H-pyrazol-4-yl)ethoxy)phenyl)-4-(4,4-dimethylpiperidin-1-yl)-2,6-dimethylpyridin-3-yl)acetic acid] showed an EC50 of 8 nM.
Compound Cc1nc(C)c([C@H](OC(C)(C)C)C(=O)O)c(N2CCC(C)(C)CC2)c1-c1ccc(OCCc2ccncc2)cc1 [Example 37, (S)-2-(tert-butoxy)-2-(4-(4,4-dimethylpiperidin-1-yl)-2,6-dimethyl-5-(4-(2-(pyridin-4-yl)ethoxy)phenyl)pyridin-3-yl)acetic acid] has an EC50 of 1 nM.
For Cc1nc(C)c([C@H](OC(C)(C)C)C(=O)O)c(N2CCC(C)(C)CC2)c1-c1ccc(OCC(C)(C)c2ccc(Cl)cc2)cc1 [Example 29, (S)-2-(tert-butoxy)-2-(5-(4-(2-(4-chlorophenyl)-2-methylpropoxy)phenyl)-4-(4,4-dimethylpiperidin-1-yl)-2,6-dimethylpyridin-3-yl)acetic acid], the EC50 was 15 nM.
Cc1nc(C)c([C@H](OC(C)(C)C)C(=O)O)c(N2CCC(C)(C)CC2)c1-c1ccc(OCCCc2ccc(F)cc2)cc1 [Example 13, (S)-2-(tert-butoxy)-2-(4-(4,4-dimethylpiperidin-1-yl)-5-(4-(3-(4-fluorophenyl)propoxy)phenyl)-2,6-dimethylpyridin-3-yl)acetic acid] gave an EC50 of 12 nM.
With COC1(C)CCN(c2c(-c3ccc(OCCc4ccc(F)cc4)cc3)c(C)nc(C)c2[C@H](OC(C)(C)C)C(=O)O)CC1 [Example 77, (S)-2-(tert-butoxy)-2-(5-(4-(4-fluorophenethoxy)phenyl)-4-(4-methoxy-4-methylpiperidin-1-yl)-2,6-dimethylpyridin-3-yl)acetic acid] the EC50 was 2 nM.
Work on Cc1nc(C)c([C@H](OC(C)(C)C)C(=O)O)c(N2CCC(C)(C)CC2)c1-c1ccc(OCCc2ccccc2)cc1 [Example 39, (S)-2-(tert-butoxy)-2-(4-(4,4-dimethylpiperidin-1-yl)-2,6-dimethyl-5-(4-phenethoxyphenyl)pyridin-3-yl)acetic acid] yielded an EC50 of 2 nM.
For Cc1nc(C)c(COc2ccc(-c3c(C)nc(C)c([C@H](OC(C)(C)C)C(=O)O)c3N3CCC(C)(C)CC3)cc2)s1 [Example 44, (S)-2-(tert-butoxy)-2-(4-(4,4-dimethylpiperidin-1-yl)-5-(4-((2,4-dimethylthiazol-5-yl)methoxy)phenyl)-2,6-dimethylpyridin-3-yl)acetic acid], the EC50 was 12 nM.
Compound CCCOc1c(C)cc(-c2c(C)nc(C)c([C@H](OC(C)(C)C)C(=O)O)c2N2CCC(C)(C)CC2)cc1C [Example 64, (S)-2-(tert-butoxy)-2-(5-(3,5-dimethyl-4-propoxyphenyl)-4-(4,4-dimethylpiperidin-1-yl)-2,6-dimethylpyridin-3-yl)acetic acid] has an EC50 of 26 nM.
For Cc1nc(C)c([C@H](OC(C)(C)C)C(=O)O)c(N2CCC(C)(C)CC2)c1-c1ccc(OCCc2cc(F)ccc2F)cc1 [Example 25, (S)-2-(tert-butoxy)-2-(5-(4-(2,5-difluorophenethoxy)phenyl)-4-(4,4-dimethylpiperidin-1-yl)-2,6-dimethylpyridin-3-yl)acetic acid], the EC50 was 3 nM.
Cc1ccc(CCOc2ccc(-c3c(C)nc(C)c([C@H](OC(C)(C)C)C(=O)O)c3N3CCC(C)(C)CC3)cc2)cc1 [Example 28, (S)-2-(tert-butoxy)-2-(4-(4,4-dimethylpiperidin-1-yl)-2,6-dimethyl-5-(4-(4-methylphenethoxy)phenyl)pyridin-3-yl)acetic acid] gave an EC50 of 19 nM.
For Cc1nc(C)c([C@H](OC(C)(C)C)C(=O)O)c(N2CCC(C)(C)CC2)c1-c1ccc(O)cc1 [Example 16, (S)-2-(tert-Butoxy)-2-(4-(4,4-dimethylpiperidin-1-yl)-5-(4-hydroxyphenyl)-2,6-dimethylpyridin-3-yl)acetic acid], the EC50 was 172 nM.
COc1ccccc1COc1ccc(-c2c(C)nc(C)c([C@H](OC(C)(C)C)C(=O)O)c2N2CCC(C)(C)CC2)cc1 [Example 6, (S)-2-(tert-butoxy)-2-(4-(4,4-dimethylpiperidin-1-yl)-5-(4-((2-methoxybenzyl)oxy)phenyl)-2,6-dimethylpyridin-3-yl)acetic acid] was tested, and the EC50 was 20 nM.
With Cc1nc(-c2ccccc2)sc1COc1ccc(-c2c(C)nc(C)c([C@H](OC(C)(C)C)C(=O)O)c2N2CCC(C)(C)CC2)cc1 [Example 45, (S)-2-(tert-butoxy)-2-(4-(4,4-dimethylpiperidin-1-yl)-2,6-dimethyl-5-(4-((4-methyl-2-phenylthiazol-5-yl)methoxy)phenyl)pyridin-3-yl)acetic acid] the EC50 was 29 nM.
Cc1nc(C)c([C@H](OC(C)(C)C)C(=O)O)c(N2CCC(C)(C)CC2)c1-c1ccc(OCc2ccc(C#N)cc2)cc1 [Example 20, (S)-2-(tert-Butoxy)-2-(5-(4-((4-cyanobenzyl)oxy)phenyl)-4-(4,4-dimethylpiperidin-1-yl)-2,6-dimethylpyridin-3-yl)acetic acid] gave an EC50 of 3 nM.
COc1ccc(COc2ccc(-c3c(C)nc(C)c([C@H](OC(C)(C)C)C(=O)O)c3N3CCC(C)(C)CC3)cc2)cc1 [Example 8, (S)-2-(tert-butoxy)-2-(4-(4,4-dimethylpiperidin-1-yl)-5-(4-((4-methoxybenzyl)oxy)phenyl)-2,6-dimethylpyridin-3-yl)acetic acid] showed an EC50 of 11 nM.
With Cc1noc(C)c1CCOc1ccc(-c2c(C)nc(C)c([C@H](OC(C)(C)C)C(=O)O)c2N2CCC(C)(C)CC2)cc1 [Example 53, (S)-2-(tert-butoxy)-2-(5-(4-(2-(3,5-dimethylisoxazol-4-yl)ethoxy)phenyl)-4-(4,4-dimethylpiperidin-1-yl)-2,6-dimethylpyridin-3-yl)acetic acid] the EC50 was 2 nM.
For Cc1nc(C)c([C@H](OC(C)(C)C)C(=O)O)c(N2CCC(C)(C)CC2)c1-c1ccc(OCCc2ccccn2)cc1 [Example 33, (S)-2-(tert-butoxy)-2-(4-(4,4-dimethylpiperidin-1-yl)-2,6-dimethyl-5-(4-(2-(pyridin-2-yl)ethoxy)phenyl)pyridin-3-yl)acetic acid], the EC50 was 1 nM.
With COc1cc(-c2c(C)nc(C)c([C@H](OC(C)(C)C)C(=O)O)c2N2CCC(C)(C)CC2)cc(OC)c1OC [Example 60, (S)-2-(tert-butoxy)-2-(4-(4,4-dimethylpiperidin-1-yl)-2,6-dimethyl-5-(3,4,5-trimethoxyphenyl)pyridin-3-yl)acetic acid] the EC50 was 262 nM.
COc1cccc(-c2c(C)nc(C)c([C@H](OC(C)(C)C)C(=O)O)c2N2CCC(C)(C)CC2)c1 [Example 62, (S)-2-(tert-butoxy)-2-(4-(4,4-dimethylpiperidin-1-yl)-5-(3-methoxyphenyl)-2,6-dimethylpyridin-3-yl)acetic acid] gave an EC50 of 166 nM.
CCCOc1ccc(-c2c(C)nc(C)c([C@H](OC(C)(C)C)C(=O)O)c2N2CCC(C)(C)CC2)cc1F [Example 59, (S)-2-(tert-butoxy)-2-(4-(4,4-dimethylpiperidin-1-yl)-5-(3-fluoro-4-propoxyphenyl)-2,6-dimethylpyridin-3-yl)acetic acid] gave an EC50 of 21 nM.
Cc1nc(C)c([C@H](OC(C)(C)C)C(=O)O)c(N2CCC(C)(C)CC2)c1-c1ccc(OCCc2ccc(OCc3ccccc3)cc2)cc1 [Example 31, (S)-2-(5-(4-(4-(benzyloxy)phenethoxy)phenyl)-4-(4,4-dimethylpiperidin-1-yl)-2,6-dimethylpyridin-3-yl)-2-(tert-butoxy)acetic acid] gave an EC50 of 47 nM.
In the case of COc1cccc(CCOc2ccc(-c3c(C)nc(C)c([C@H](OC(C)(C)C)C(=O)O)c3N3CCC(C)(C)CC3)cc2OCCc2cccc(OC)c2)c1 [Example 46, (S)-2-(5-(3,4-bis(3-methoxyphenethoxy)phenyl)-4-(4,4-dimethylpiperidin-1-yl)-2,6-dimethylpyridin-3-yl)-2-(tert-butoxy)acetic acid], the EC50 is reported as 14 nM.
Cc1nc(C)c([C@H](OC(C)(C)C)C(=O)O)c(N2CCC(C)(C)CC2)c1-c1ccc(OCc2ccc(Cl)cc2)cc1 [Example 9, (S)-2-(tert-butoxy)-2-(5-(4-((4-chlorobenzyl)oxy)phenyl)-4-(4,4-dimethylpiperidin-1-yl)-2,6-dimethylpyridin-3-yl)acetic acid] showed an EC50 of 9 nM.
CCOc1ccc(-c2c(C)nc(C)c([C@H](OC(C)(C)C)C(=O)O)c2N2CCC(C)(C)CC2)cc1F [Example 65, (S)-2-(tert-butoxy)-2-(4-(4,4-dimethylpiperidin-1-yl)-5-(4-ethoxy-3-fluorophenyl)-2,6-dimethylpyridin-3-yl)acetic acid] was tested, and the EC50 was 44 nM.
In the case of Cc1nc(C)c([C@H](OC(C)(C)C)C(=O)O)c(N2CCC(C)(C)CC2)c1-c1ccc(OCCc2ccc(F)cc2)cc1 [Example 11, (S)-2-(tert-butoxy)-2-(4-(4,4-dimethylpiperidin-1-yl)-5-(4-(4-fluorophenethoxy)phenyl)-2,6-dimethylpyridin-3-yl)acetic acid], the EC50 is reported as 4 nM.
